# Test results from ChEMBL document CHEMBL3879901, “Substituted isoquinolin-1(2H)-ones, and methods of use thereof” (2012).
# What was measured:
# [1] = target: PI3-kinase p110-delta/p85-alpha (Homo sapiens, UniProt O00329); test: Inhibition of N-terminal His6-tagged recombinant full-length human p110delta/untagged recombinant full length p85alpha expressed in baculovirus infected Sf21 cells using phosphatidylinositol as substrate in presence of gamma-32P-ATP after 5 mins by thin layer chromatographic method
# [2] = target: Phosphatidylinositol 4,5-bisphosphate 3-kinase catalytic subunit gamma isoform (Homo sapiens, UniProt P48736); test: Inhibition of recombinant human C-terminal His6-tagged p110gamma expressed in insect cells using phosphatidylinositol as substrate in presence of gamma-32P-ATP after 5 mins by thin layer chromatographic method
# [3] = target: PI3-kinase p110-alpha/p85-alpha (Homo sapiens, UniProt P42336); test: Inhibition of N-terminal His6-tagged recombinant full-length human p110alpha/untagged recombinant full length human p85alpha expressed in baculovirus infected Sf21 cells using phosphatidylinositol as substrate in presence of gamma-32P-ATP after 5 mins by thin layer chromatographic method
# [4] = target: PI3K p110 beta/p85 alpha (Homo sapiens, UniProt P42338); test: Inhibition of N-terminal His6-tagged recombinant full-length human p110beta/untagged recombinant full length p85alpha expressed in baculovirus infected Sf21 cells using phosphatidylinositol as substrate in presence of gamma-32P-ATP after 5 mins by thin layer chromatographic method
# [5] = Antiproliferative activity against Balb/c mouse splenic B cells preincubated for 30 mins followed by LPS or F(ab')2 donkey anti-mouse IgM and recombinant mouse IL4 stimulation measured after 72 hrs by Alamar Blue reduction assay; format: functional, cell-based
# Sequence of Phosphatidylinositol 4,5-bisphosphate 3-kinase catalytic subunit gamma isoform (P48736 whole entry, canonical isoform): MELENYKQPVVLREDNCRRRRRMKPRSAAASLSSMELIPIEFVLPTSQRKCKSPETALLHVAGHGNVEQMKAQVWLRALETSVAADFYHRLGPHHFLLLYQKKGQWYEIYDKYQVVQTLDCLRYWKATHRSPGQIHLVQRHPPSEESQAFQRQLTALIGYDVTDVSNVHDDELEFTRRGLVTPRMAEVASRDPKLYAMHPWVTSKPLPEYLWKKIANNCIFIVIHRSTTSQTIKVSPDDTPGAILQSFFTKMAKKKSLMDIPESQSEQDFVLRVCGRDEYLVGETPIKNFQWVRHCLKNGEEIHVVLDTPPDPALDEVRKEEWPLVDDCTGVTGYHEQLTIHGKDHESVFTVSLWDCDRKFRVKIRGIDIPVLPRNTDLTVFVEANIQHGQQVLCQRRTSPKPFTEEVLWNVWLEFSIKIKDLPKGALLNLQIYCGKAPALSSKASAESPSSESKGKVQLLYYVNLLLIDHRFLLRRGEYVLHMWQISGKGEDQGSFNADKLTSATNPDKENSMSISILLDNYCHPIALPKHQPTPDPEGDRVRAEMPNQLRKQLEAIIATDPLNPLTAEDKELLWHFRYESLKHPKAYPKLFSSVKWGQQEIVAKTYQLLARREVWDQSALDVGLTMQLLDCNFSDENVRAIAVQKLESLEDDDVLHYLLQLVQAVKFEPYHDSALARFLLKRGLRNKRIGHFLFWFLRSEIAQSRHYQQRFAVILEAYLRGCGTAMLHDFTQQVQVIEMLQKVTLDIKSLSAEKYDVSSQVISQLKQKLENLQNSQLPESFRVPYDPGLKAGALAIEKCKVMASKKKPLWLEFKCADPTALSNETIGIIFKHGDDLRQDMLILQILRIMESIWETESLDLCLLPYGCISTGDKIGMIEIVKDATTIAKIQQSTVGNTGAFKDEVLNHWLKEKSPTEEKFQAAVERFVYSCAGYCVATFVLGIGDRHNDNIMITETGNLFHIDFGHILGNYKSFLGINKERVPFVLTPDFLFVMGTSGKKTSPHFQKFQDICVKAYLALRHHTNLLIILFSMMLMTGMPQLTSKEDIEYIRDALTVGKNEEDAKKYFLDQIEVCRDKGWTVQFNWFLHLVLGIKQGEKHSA
# Sequence of PI3-kinase p110-delta/p85-alpha (P27986 whole entry, canonical isoform): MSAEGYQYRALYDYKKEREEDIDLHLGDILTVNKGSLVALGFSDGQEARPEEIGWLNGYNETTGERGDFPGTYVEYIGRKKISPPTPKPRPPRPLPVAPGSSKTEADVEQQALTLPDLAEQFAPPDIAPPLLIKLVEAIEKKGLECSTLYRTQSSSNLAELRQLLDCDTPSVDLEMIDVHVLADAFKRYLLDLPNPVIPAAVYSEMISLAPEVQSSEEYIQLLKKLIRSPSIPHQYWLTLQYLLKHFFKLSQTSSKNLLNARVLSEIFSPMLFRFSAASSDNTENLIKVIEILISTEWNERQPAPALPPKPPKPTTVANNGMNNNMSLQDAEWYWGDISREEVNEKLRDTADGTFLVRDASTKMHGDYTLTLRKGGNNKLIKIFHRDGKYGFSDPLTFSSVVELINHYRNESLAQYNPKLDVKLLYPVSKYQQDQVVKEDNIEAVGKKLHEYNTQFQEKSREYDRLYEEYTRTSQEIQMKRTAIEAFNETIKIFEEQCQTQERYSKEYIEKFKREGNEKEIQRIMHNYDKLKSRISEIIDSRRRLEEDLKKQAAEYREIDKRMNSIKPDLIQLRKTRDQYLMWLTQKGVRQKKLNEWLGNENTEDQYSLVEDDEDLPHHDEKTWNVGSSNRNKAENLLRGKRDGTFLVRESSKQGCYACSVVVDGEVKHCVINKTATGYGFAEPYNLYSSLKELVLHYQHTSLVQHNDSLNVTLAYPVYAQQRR
# Sequence of PI3-kinase p110-delta/p85-alpha (O00329 whole entry, canonical isoform): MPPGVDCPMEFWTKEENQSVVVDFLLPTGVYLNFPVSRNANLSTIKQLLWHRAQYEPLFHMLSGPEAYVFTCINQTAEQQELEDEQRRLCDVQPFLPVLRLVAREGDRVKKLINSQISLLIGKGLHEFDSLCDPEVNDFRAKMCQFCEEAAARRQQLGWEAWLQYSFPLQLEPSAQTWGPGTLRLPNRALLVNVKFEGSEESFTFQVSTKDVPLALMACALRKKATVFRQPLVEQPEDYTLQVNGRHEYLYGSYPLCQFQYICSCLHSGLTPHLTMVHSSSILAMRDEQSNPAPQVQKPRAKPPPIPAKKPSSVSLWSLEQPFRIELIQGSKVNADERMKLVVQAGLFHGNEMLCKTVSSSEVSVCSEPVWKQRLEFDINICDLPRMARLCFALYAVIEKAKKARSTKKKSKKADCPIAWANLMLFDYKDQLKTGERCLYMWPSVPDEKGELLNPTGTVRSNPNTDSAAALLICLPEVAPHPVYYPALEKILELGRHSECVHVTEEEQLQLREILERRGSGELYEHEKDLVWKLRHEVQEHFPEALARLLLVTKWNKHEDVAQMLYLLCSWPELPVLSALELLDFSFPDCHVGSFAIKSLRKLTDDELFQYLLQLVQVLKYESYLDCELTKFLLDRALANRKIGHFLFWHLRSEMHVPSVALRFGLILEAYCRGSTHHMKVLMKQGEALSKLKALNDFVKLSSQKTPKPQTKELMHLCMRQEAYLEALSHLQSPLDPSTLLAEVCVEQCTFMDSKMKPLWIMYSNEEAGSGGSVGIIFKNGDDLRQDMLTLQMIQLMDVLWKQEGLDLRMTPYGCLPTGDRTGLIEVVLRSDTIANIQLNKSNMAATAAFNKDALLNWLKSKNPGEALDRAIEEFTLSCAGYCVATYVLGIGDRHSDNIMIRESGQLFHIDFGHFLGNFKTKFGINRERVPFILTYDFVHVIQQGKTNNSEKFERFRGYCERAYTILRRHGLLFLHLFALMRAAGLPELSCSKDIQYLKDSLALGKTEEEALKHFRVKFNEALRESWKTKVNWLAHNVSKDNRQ
# Sequence of PI3K p110 beta/p85 alpha (P27986 whole entry): as the sequence (P27986 whole entry, canonical isoform) above
# Sequence of PI3K p110 beta/p85 alpha (P42338 whole entry): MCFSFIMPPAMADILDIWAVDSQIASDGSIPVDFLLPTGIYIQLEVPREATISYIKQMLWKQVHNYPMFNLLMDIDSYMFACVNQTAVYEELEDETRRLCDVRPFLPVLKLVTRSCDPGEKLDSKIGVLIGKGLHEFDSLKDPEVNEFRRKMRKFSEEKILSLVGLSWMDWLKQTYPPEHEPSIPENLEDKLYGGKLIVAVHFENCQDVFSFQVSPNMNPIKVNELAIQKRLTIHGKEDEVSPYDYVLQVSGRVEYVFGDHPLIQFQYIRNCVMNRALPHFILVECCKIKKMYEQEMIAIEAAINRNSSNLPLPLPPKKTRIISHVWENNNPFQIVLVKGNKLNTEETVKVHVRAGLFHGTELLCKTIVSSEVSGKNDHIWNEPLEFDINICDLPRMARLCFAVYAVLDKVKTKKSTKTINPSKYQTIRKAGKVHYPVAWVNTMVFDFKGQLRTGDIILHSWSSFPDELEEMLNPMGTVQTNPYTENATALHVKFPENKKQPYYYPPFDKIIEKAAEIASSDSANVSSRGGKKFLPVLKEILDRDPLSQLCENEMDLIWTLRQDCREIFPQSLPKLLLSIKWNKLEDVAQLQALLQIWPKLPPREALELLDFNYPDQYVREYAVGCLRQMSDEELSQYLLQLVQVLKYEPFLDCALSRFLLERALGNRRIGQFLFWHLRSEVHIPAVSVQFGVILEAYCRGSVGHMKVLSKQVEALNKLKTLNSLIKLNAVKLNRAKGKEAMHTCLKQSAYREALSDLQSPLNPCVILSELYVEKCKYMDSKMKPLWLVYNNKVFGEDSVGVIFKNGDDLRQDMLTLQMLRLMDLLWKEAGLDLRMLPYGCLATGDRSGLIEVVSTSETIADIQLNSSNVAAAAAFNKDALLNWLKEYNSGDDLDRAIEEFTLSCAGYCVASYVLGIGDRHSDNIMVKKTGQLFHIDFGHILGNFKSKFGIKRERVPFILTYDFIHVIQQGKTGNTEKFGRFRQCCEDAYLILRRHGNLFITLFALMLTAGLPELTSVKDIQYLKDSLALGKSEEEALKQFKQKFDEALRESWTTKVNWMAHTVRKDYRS
# Sequence of PI3-kinase p110-alpha/p85-alpha (P27986 whole entry): as the sequence (P27986 whole entry, canonical isoform) above
# Sequence of PI3-kinase p110-alpha/p85-alpha (P42336 whole entry): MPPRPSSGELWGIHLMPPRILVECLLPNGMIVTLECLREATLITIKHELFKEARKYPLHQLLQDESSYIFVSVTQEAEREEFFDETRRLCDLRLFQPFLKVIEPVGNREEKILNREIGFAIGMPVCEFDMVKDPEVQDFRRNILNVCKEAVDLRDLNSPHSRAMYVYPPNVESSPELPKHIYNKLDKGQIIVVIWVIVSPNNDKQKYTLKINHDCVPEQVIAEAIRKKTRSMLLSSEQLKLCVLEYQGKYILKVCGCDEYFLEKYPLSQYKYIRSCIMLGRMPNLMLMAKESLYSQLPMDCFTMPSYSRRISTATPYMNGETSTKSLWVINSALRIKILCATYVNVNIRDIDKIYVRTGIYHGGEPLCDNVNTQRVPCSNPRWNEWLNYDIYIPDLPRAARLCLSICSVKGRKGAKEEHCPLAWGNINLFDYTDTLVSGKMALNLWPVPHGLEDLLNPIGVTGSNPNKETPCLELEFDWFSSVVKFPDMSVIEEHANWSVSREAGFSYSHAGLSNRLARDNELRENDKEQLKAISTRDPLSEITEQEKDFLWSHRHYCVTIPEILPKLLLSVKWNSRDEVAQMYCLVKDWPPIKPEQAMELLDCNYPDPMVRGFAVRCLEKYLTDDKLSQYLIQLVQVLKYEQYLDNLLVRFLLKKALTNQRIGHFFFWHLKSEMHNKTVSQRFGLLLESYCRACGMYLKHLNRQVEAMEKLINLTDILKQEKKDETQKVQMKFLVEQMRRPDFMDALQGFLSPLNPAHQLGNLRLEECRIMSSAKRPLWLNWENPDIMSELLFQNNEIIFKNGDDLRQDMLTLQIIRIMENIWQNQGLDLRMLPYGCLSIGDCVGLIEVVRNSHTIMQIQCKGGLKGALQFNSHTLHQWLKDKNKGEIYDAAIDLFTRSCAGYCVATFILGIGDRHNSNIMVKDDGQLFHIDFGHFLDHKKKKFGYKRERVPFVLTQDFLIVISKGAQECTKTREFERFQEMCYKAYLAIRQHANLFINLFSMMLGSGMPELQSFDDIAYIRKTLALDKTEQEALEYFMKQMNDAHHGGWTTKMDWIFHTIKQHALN
SMILES,IC50 [1] [nM],IC50 [2] [nM],IC50 [3] [nM],IC50 [4] [nM],EC50 [5] [nM]
Cc1cccc2cc([C@H](C)Nc3nc(N)ncc3C(F)(F)F)n(-c3ccccc3)c(=O)c12,< 100,< 100,,,
CC(=O)Nc1nc2ccc(-c3nn(Cc4cc5cccc(C)c5c(=O)n4-c4ccccc4C)c4ncnc(N)c34)cc2o1,< 100,< 100,,,
Cc1cccnc1-n1c(Cn2nc(-c3cccc(O)c3)c3c(N)ncnc32)cc2ccccc2c1=O,< 1000,< 10000,,,
Cc1cccnc1-n1c(Cn2nc(-c3ccc4oc(N)nc4c3)c3c(N)ncnc32)cc2cccc(C)c2c1=O,< 100,< 100,,,
CC(=O)Nc1nc2ccc(-c3nn(Cc4cc5cccc(C)c5c(=O)n4-c4ccccc4)c4ncnc(N)c34)cc2s1,< 100,,< 1000,< 10000,< 100
CC(=O)Nc1nc2ccc(-c3nn(Cc4cc5cccc(F)c5c(=O)n4C(C)C)c4ncnc(N)c34)cc2s1,< 100,,< 100000,< 10000,< 100
Cc1cccc2cc(Cn3nc(-c4cccc(O)c4)c4c(N)ncnc43)n(-c3ccccc3)c(=O)c12,< 100,,> 10000,> 10000,< 100
Cc1cccc2cc([C@H](C)Nc3ncnc4[nH]cnc34)n(C3CCC3)c(=O)c12,,< 100,,,< 100
COc1ccc(-c2nn(Cc3cc4cccc(C)c4c(=O)n3-c3ccccc3C)c3ncnc(N)c23)cc1OC,< 1000,,> 10000,> 10000,< 100
Cc1ccccc1-n1c(Cn2nc(-c3ccc(F)c(O)c3)c3c(N)ncnc32)cc2cccc(C)c2c1=O,< 100,,> 10000,< 10000,< 100
Cc1cccc2cc(Cn3nc(-c4cc(O)cc(F)c4)c4c(N)ncnc43)n(-c3ccccc3)c(=O)c12,< 100,,< 1000,< 10000,< 100
Cc1cccc2cc(Cn3nc(-c4ccc(O)c(Cl)c4)c4c(N)ncnc43)n(-c3ccccc3F)c(=O)c12,< 1000,,> 10000,> 10000,< 10000
Cc1cccc2cc(Cn3nc(-c4ccc5nc(N)oc5c4)c4c(N)ncnc43)n(-c3ccccc3)c(=O)c12,,100 to 1000,,,< 10000
CC(=O)Nc1nc2ccc(-c3nn(Cc4cc5cccc(C)c5c(=O)n4C(C)C)c4ncnc(N)c34)cc2s1,< 100,,< 100000,< 10000,< 100
CC(=O)Nc1nc2ccc(-c3nn(Cc4cc5cccc(C)c5c(=O)n4C4CCC4)c4ncnc(N)c34)cc2s1,< 100,,< 100000,< 1000,< 100
Cc1ccccc1-n1c(Cn2nc(-c3ccc4nc(N)sc4c3)c3c(N)ncnc32)cc2cccc(C)c2c1=O,< 100,,< 1000,< 10000,< 1000
Cc1cccc2cc(Cn3nc(-c4cccc(O)c4)c4c(N)ncnc43)n(C(C)C)c(=O)c12,< 100,,> 10000,< 1000,< 100
Cc1ccccc1-n1c(Cn2nc(-c3cccc(O)c3)c3c(N)ncnc32)cc2cccc(C)c2c1=O,< 100,,> 10000,< 10000,< 100
Cc1cccc2cc(Cn3nc(-c4cccc(O)c4)c4c(N)ncnc43)n(C3CCC3)c(=O)c12,< 100,,> 10000,< 10000,< 1000
CC(=O)Nc1nc2ccc(-c3nn(Cc4cc5cccc(C)c5c(=O)n4-c4ccccc4)c4ncnc(N)c34)cc2[nH]1,,< 100,,,
Cc1cccc2cc(Cn3nc(I)c4c(N)ncnc43)n(-c3ccccc3O)c(=O)c12,< 100,,> 10000,> 10000,< 1000

SMILES,IC50 [1] [nM],IC50 [2] [nM],IC50 [3] [nM],IC50 [4] [nM],EC50 [5] [nM]
COc1cc(-c2nn(Cc3cc4cccc(C)c4c(=O)n3-c3ccccc3C)c3ncnc(N)c23)ccc1Cl,< 1000,,> 10000,> 10000,< 1000
Cc1cccc2cc(Cn3nc(-c4cccc(O)c4)c4c(N)ncnc43)n(C3CC3)c(=O)c12,< 100,,< 1000,< 1000,< 100
Cc1cccc2cc(Cn3nc(I)c4c(N)ncnc43)n(C3CC3)c(=O)c12,< 100,,< 10000,< 10000,< 1000
Cc1cccc2cc([C@H](C)Nc3ncnc4[nH]cnc34)n(-c3cccc(F)c3)c(=O)c12,,< 100,,,< 100
Cc1cccc2cc(Cn3nc(-c4cc(O)cc(F)c4)c4c(N)ncnc43)n(C3CC3)c(=O)c12,< 100,,< 1000,< 100,< 100
CCn1c(Cn2nc(-c3ccc4nc(NC(C)=O)sc4c3)c3c(N)ncnc32)cc2cccc(C)c2c1=O,< 100,,< 100000,< 1000,< 100
COc1ccccc1-n1c(Cn2nc(-c3cccc(O)c3)c3c(N)ncnc32)cc2cccc(C)c2c1=O,< 100,,> 10000,< 10000,< 100
Cc1ccccc1-n1c(Cn2nc(-c3cn[nH]c3)c3c(N)ncnc32)cc2cccc(C)c2c1=O,< 100,,> 10000,< 10000,< 100
Cc1cccc2cc(Cn3nc(-c4cc(O)cc(F)c4)c4c(N)ncnc43)n(C3CCC3)c(=O)c12,< 100,,< 10000,< 10000,< 100
Cc1cccc2cc(Cn3nc(-c4cn[nH]c4)c4c(N)ncnc43)n(-c3ccccc3C(C)C)c(=O)c12,< 100,,< 10000,< 1000,< 100
Cc1cccnc1-n1c(Cn2nc(-c3ccc(F)c(O)c3)c3c(N)ncnc32)cc2cccc(C)c2c1=O,< 100,,> 10000,> 10000,< 100
Cc1cccc2cc(Cn3nc(C#C[C@@H](C)O)c4c(N)ncnc43)n(-c3ccccc3C(C)C)c(=O)c12,< 100,,> 10000,< 10000,< 100
CC(=O)Nc1nc2ccc(-c3nn(Cc4cc5cccc(C)c5c(=O)n4C4CC4)c4ncnc(N)c34)cc2s1,< 100,,< 100000,< 100,< 100
Cc1ccccc1-n1c(Cn2nc(-c3ccc(F)c(O)c3)c3c(N)ncnc32)cc2ccccc2c1=O,< 100,,> 10000,> 10000,< 100
Cc1ccccc1-n1c(Cn2nc(-c3ccc4ncnc(N)c4c3)c3c(N)ncnc32)cc2cccc(C)c2c1=O,< 100,,< 10000,> 10000,< 1000
Cc1cccc2cc([C@H](C)Nc3nc(N)nc4[nH]cnc34)n(-c3ccccc3)c(=O)c12,< 100,< 100,,,
Cc1cccnc1-n1c(Cn2nc(-c3ccc(Cl)c(O)c3)c3c(N)ncnc32)cc2cccc(C)c2c1=O,< 100,,> 10000,< 10000,< 100
Cc1cccc2cc(Cn3nc(-c4cc(O)cc(F)c4)c4c(N)ncnc43)n(-c3ccccc3F)c(=O)c12,< 100,,< 10000,< 10000,< 100
Cc1cccc2cc([C@H](C)Nc3ncnc4[nH]nc(Cl)c34)n(-c3ccccc3)c(=O)c12,< 100,< 100,,,
Cc1cccc2cc(Cn3nc(I)c4c(N)ncnc43)n(C3CCCCC3)c(=O)c12,< 1000,,> 10000,> 10000,< 10000
